Assay results taken from US20080051378A1, “Combinations Comprising Antimuscarinic Agents and Corticosteroids” (priority 2004, published 2008).

Test system: ovoalbumin-sensitized guinea-pig isolated tracheal rings
Experiment: Inhibition of the antigen (ovoalbumin)-induced contraction in ovoalbumin-sensitized guinea-pig isolated tracheal rings
Conditions: for CONTRACTILE RESPONSE TO OVOALBUMIN (in mg) (mean ± sem): vehicle 886 ± 108 mg
Description: Male Dunkin-Hartley guinea-pigs (weighing 380-420 g) from Harlan Ibérica (St. Feliu de Codines, Spain) are used. They are housed, with free access to food and water, in rooms kept at 22±2° C. under a 12 hours light-dark cycle until the start of the experiment.
The animals are sensitised by means of two sessions of aerosolization with a solution of 5 mg/ml of ovoalbumin on days zero and 7 of the study. The aerosolization procedure consists of two 30-s nebulisations (Efbe air brush apparatus) with an interval of 5 minutes with animals maintained in a plexiglass box for 10 minutes since the beginning of the procedure.
Between days 14 to 20 from the beginning of the experiment the animals are euthanised and the tracheal tissue is removed. A single tracheal ring is excised and suspended in an organ bath containing Krebs solution. Once attached to a force isometric transducer, it is submitted to a basal resting tension of 1 g, equilibrated with a mixture a 5% CO2 in O2 and maintained at 37° C.
The preparations are allowed to equilibrate for a period of not less than 60 minutes and then the vehicle or the compound(s) to be tested are added to the bath. The corticosteroids (if present) are added first, and, after an incubation period of 45 minutes, the M3 antagonist are subsequently added allowing the system to stand for another 15 minutes. At this moment ovoalbumin is added (at a final concentration in the bath of 10 μg/ml) to elicit the contractile response which is measured immediately.
The contractile responses measured with a force isometric transducer are expressed in mg.

[1] = each compound 10 μM in organ bath, corticosteroid added 45 min before, M3 antagonist 15 min before ovoalbumin 10 μg/ml

SMILES	CONTRACTILE RESPONSE TO OVOALBUMIN (in mg) (mean ± sem) [1] [mg]	% INHIBITION OF THE CONTRACTILE RESPONSE (each compound 10 μM in organ bath, corticosteroid added 45 min before, M3 antagonist 15 min before ovoalbumin 10 μg/ml, versus vehicle) [%]	inhibition of the contractile response, comparison in words (text summary of Table 1 and FIG. 1, 10 μM each)	inhibition at 10 µM (Cavia porcellus, each compound 10 μM in organ bath, corticosteroid added 45 min before, M3 antagonist 15 min before ovoalbumin 10 μg/ml, versus vehicle, read-out: % INHIBITION OF THE CONTRACTILE RESPONSE) [%]
C[C@H]1C[C@H]2[C@@H]3CCC4=CC(=O)C=C[C@]4(C)[C@@]3(Cl)[C@@H](O)C[C@]2(C)[C@@]1(O)C(=O)CO [BECLOMETHASONE, beclomethasone]	778 ± 83	12	smaller effect	–
CCCC1O[C@@H]2C[C@H]3[C@@H]4CCC5=CC(=O)C=C[C@]5(C)[C@H]4[C@@H](O)C[C@]3(C)[C@]2(C(=O)CO)O1 (some centres unmarked) [BUDESONIDE, budesonide]	435 ± 68	–	–	51
